The assay has as its target T1, Mitogen-activated protein kinase kinase kinase 19 (Homo sapiens, UniProt Q56UN5).
T1 sequence (Q56UN5 whole entry): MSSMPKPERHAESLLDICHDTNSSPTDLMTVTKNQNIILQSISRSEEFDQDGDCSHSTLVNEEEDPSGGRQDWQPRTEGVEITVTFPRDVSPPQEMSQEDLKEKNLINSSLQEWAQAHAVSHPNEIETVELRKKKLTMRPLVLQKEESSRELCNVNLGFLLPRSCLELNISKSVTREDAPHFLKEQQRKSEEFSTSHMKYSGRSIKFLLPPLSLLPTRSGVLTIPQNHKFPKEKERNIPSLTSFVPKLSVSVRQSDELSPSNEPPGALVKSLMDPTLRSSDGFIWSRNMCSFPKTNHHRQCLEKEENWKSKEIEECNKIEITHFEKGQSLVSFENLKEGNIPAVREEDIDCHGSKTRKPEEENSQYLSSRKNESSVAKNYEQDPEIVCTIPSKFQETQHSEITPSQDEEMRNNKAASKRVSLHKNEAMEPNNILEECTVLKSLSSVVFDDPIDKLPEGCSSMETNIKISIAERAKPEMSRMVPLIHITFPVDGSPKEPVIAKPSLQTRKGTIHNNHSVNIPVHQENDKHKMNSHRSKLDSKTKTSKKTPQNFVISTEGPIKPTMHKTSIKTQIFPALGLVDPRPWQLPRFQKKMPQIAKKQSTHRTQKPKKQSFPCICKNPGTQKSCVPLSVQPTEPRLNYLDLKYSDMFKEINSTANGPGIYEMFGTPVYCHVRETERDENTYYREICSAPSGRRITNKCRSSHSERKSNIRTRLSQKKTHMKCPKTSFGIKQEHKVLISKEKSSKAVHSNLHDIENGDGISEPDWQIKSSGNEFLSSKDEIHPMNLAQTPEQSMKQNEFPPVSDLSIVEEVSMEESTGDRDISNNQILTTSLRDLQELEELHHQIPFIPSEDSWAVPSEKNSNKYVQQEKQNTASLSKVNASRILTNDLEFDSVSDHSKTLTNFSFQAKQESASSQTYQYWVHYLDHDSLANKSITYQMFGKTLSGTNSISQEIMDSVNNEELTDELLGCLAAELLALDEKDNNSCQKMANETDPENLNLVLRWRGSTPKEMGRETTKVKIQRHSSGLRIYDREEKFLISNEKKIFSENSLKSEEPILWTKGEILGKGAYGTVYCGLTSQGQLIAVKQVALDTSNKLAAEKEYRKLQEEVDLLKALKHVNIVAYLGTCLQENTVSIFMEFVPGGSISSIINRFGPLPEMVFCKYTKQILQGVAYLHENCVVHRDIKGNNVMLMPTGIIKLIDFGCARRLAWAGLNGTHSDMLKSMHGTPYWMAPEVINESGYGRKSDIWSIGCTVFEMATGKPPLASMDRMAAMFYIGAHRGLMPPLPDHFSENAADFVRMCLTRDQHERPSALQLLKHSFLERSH
The assay is described as follows: In Vitro Effect Assay: Table 5: The experimental procedure referred to the Z′-LYTE Screening Protocol and Assay Conditions provided by ThermoFisher Scientific. C-1. […] Peptide/Kinase Mixture was pre-diluted with Kinase Buffer to 2× working concentration. ATP solution was pre-diluted with Kinase Buffer (50 mM HEPES pH 7.5, 0.01% BRIJ-35, 10 mM MgCl2, 1 mM EGTA) to 4× working concentration. […], which contains 2 mg/mL Phosphatidyl Serine, 0.2 mg/mL DAG in 20 mM HEPES, pH 7.4 and 0.3% CHAPS, and was pre-diluted 10 fold with development buffer.C-2. Analytical Method. 1. 100 nL of the above diluted test compound and 2.4 μL of kinase buffer were added to a black 384-well plate (Corning, Cat. NO. 4514), then add 5 μL of the peptide/kinase mixture mentioned above was added thereto, and after that 2.5 μL of ATP solution was added thereto, and the culture plate was shaken for 30 seconds.2. Next, the culture plate was placed at room temperature and incubated for 60 minutes.3. After that 5 μL of the development reagent solution was added and the culture plate was shaken for 30 seconds in the dark, and then the data was read and analyzed with a fluorescence plate reader. […].

Molecules are shown by their SMILES.

Take `NCC(Oc1ccc(C(F)(F)F)cc1)C(=O)Nc1ccc(-c2cn[nH]c2)cc1` (configuration not stated): the IC50 was above 10 µM.

On to `NCC(C(=O)Nc1ccc(-c2cn[nH]c2)cc1)c1ccc(CO)cc1` (configuration not stated), for which the IC50 was above 1 µM.

Usually IC50 stands for the point on the concentration scale where inhibition reaches its midpoint.

The record behind these values is ChEMBL document CHEMBL5729637, “Beta-amino acid derivative, kinase inhibitor and pharmaceutical composition containing the same, and method for performing an in vivo related application that benefits from the inhibition of a kinase” (2023).
